According to publication PMC4222986 (Journal of neurochemistry, 2014):
Counter-ions that a name gives are not always drawn. Like-named read-outs stand apart in the source and are kept apart here.

Experiments:
[1] = test system: D2 and D3 receptors; conditions: humans; ref Tziortzi et al., 2011; Payer et al., 2014a,b; cited from earlier work
[2] = test system: hD2 and hD3 dopamine receptors expressed in HEK-293 cells; assay: D2 and D3 dopamine receptor combination experiments; format: binding, human; conditions: radioligand about Kd for hD3, 37°C 30 min, (+)-butaclamol nonspecific
[3] = target: rat D3 dopamine receptors (Rattus norvegicus, UniProt P19020); assay: competitive radioligand binding with [3H]LS-3-134, rD3 HEK-293
[4] = target: rat striatal tissue (Rattus norvegicus, UniProt P19020); assay: competitive radioligand binding with [3H]LS-3-134, rat striatal tissue; conditions: Ki values [^3H]LS-3-134 rat striatum, mean ± S.E.M., n ≥ 3, Cheng & Prusoff
[5] = test system: D3 dopamine receptor; conditions: forskolin-dependent adenylyl cyclase; ref Tu et al., 2011a; cited from earlier work
[6] = test system: D2 dopamine receptor; conditions: forskolin-dependent adenylyl cyclase; ref Tu et al., 2011a; cited from earlier work
[7] = target: T1, human D2 dopamine receptors (Homo sapiens, UniProt P14416); conditions: ratio of Ki values of Table I
[8] = target: T2, human D3 dopamine receptors (Homo sapiens, UniProt P35462); assay: competitive radioligand binding with [3H]LS-3-134, hD3 HEK-293
[9] = target: T1, human D2 dopamine receptors; conditions: ref Vangveravong et al., 2006; Luedtke et al., 2012; cited from earlier work
[10] = target: T2, human D3 dopamine receptors; conditions: ref Tu et al., 2011a; cited from earlier work
[11] = target: T2, human D3 dopamine receptors; assay: [125I]IABN radioligand binding, human D3 receptors stably expressed in HEK cells; conditions: ratio of Ki values of Table I
[12] = Ki values [^3H]LS-3-134 rD3-HEK 293, mean ± S.E.M., n ≥ 3, Cheng & Prusoff

T2 sequence (P35462 whole entry): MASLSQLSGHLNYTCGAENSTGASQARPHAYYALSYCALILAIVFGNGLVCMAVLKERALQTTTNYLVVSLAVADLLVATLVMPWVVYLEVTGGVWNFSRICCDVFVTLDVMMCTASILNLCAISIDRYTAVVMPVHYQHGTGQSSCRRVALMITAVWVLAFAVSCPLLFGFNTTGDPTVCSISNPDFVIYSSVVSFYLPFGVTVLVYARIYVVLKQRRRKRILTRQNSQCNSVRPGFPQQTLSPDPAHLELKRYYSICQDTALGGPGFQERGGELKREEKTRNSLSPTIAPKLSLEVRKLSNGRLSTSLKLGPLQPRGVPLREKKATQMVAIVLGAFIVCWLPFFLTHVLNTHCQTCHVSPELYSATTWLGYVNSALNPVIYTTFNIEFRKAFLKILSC
Chain of rat D3 dopamine receptors (P19020 whole entry): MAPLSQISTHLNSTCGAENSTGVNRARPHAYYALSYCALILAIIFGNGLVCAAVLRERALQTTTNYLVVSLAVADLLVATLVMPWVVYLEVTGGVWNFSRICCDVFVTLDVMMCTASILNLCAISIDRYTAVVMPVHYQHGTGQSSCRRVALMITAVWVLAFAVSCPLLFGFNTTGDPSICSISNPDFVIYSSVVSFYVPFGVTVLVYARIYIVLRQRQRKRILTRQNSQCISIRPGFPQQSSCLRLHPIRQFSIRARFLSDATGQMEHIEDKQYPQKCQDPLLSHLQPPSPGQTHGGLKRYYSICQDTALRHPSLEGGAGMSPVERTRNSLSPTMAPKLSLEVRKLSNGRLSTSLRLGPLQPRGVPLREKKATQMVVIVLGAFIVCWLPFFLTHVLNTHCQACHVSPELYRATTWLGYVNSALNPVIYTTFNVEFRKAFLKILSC
Chain of rat striatal tissue (P19020 whole entry): as above
T1 sequence (P14416 whole entry): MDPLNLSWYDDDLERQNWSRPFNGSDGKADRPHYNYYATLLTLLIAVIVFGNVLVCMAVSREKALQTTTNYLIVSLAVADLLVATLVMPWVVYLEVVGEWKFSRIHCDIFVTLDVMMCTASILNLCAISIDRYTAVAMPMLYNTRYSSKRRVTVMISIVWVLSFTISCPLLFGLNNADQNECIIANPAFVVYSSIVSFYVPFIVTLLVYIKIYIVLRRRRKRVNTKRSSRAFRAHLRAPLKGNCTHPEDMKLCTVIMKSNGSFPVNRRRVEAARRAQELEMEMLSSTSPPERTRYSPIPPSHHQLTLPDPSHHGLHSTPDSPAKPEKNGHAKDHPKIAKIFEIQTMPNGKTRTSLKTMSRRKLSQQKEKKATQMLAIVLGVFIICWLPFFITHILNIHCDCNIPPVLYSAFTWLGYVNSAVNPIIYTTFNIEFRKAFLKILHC

## CCCN1CCO[C@@H]2c3cc(O)ccc3CC[C@H]21 [[^11C](+)-PHNO]
[1]
  receptors labelled in PET imaging: label both D2 and D3 receptors

## CCN1CCC[C@H]1CNC(=O)c1c(O)c(Cl)cc(Cl)c1OC (racemic) [[^3H]raclopride]
[2]
  specific binding on adding increasing amounts of hD2 membranes to constant hD3: increased specific binding was observed

## COc1cc([125I])cc(C(=O)NC2CC3CCCC(C2)N3Cc2ccccc2)c1OC (stereo not shown) [[^125I]IABN]
[2]
  specific binding on adding increasing amounts of hD2 membranes to constant hD3: increased specific binding was observed

## CCc1cc(Cl)c(OC)c(C(=O)NC[C@@H]2CCCN2CC)c1O [Eticlopride, S-(−)-3-chloro-5-ethyl-N-[(1-ethyl-2-pyrrolidinyl)methyl]-6-hydroxy-2-methoxybenzamide hydrochloride]
[3]; [12]
  Ki: 0.12 ± 0.05 nM
[4]
  Ki: 0.37 ± 0.09 nM

## O=C(NCCCCN1CCN(c2ccccc2OCCF)CC1)c1ccc(-c2ccsc2)cc1 [LS-3-134]
[5]
  % of full agonist activity at D3: 35%
[6]
  % of full agonist activity at D2: 29%

## COc1ccc2[nH]cc(CN3CCC(O)(c4ccc(SC)cc4)CC3)c2c1 [SV 293, 1-((5-methoxy-1H-indol-3-yl)methyl)-4-(4-(methylthio)phenyl)piperidin-4-ol]
[7]
  Binding Selectivity D3:D2: 105
  Binding Selectivity D4:D2: 103
[8]; Ki values [^3H]LS-3-134 hD3-HEK 293, mean ± S.E.M., n ≥ 3, Cheng & Prusoff
  Ki: 324 ± 39.2 nM
[3]; [12]
  Ki: 892 ± 44.2 nM
[9]
  selectivity for hD2 dopamine receptors compared to hD3: 100 fold
[4]
  Ki: 323 ± 49.1 nM

## COc1ccccc1N1CCN(CCCCNC(=O)c2ccc(N(C)C)cc2)CC1 [WC 10, 4-(dimethylamino)-N-(4-(4-(2-methoxyphenyl)piperazin-1-yl)butyl)benzamide]
[10]
  D3 vs. D2 dopamine receptor subtype binding selectivity: 43 fold
[8]
  Ki: 1.25 ± 0.36 nM
[11]
  Binding Selectivity D2:D3: 43
  Binding Selectivity D4:D3: 1120
[3]
  Ki: 5.71 ± 0.81 nM
[4]
  Ki: 2.46 ± 0.19 nM
